The source of these data is patent US9924721B2 (priority 2013, dated 2018).

For series [1] the following is noted: pH 2.7.
The next series has as its system Phytophthora infestans. The series can be described thus: microbe, parasite or virus in culture. The settings on record: 8 days incubation. The class given is cell-based.
The mark [2] stands for this setting: 0.25 μg/mL of active ingredient.

The structures appear in SMILES notation. Marks after values point to notes of the source that are not given here.

In the case of `CC(C)OC(=O)C(Br)C(=O)N1CCC(c2nc(C3=NOC(c4ccccc4OS(C)(=O)=O)C3)cs2)CC1` (stereo not shown) [Example I-37], the “Log P” value in series [1] is 2.99^[a].

Consider `CCOC(=O)C(C(=O)N1CCC(c2nc(C3=NOC(c4ccccc4C=O)C3)cs2)CC1)n1nc(C(F)F)cc1C(F)F` (stereo not shown) [Example I-14], for which the “Log P” value in series [1] is 3.40^[a].

Regarding `CC(C)(C)OC(=O)C(C(=O)N1CCC(c2nc(C3=NOC(c4c(Cl)cccc4OS(C)(=O)=O)C3)cs2)CC1)n1nc(C(F)F)cc1C(F)F` (stereo not shown) [Example I-64], the “Eff. % (inhibition of fungal growth)” value with Phytophthora infestans (setting [2]) was 100%. Moreover, the “Log P” value in series [1] was 4.00^[a].

As to `C#CCOc1cccc(Cl)c1C1CC(c2csc(C3CCN(C(=O)C(Br)C(=O)OCC)CC3)n2)=NO1` (stereo not shown) [Example I-31], the “Log P” value in series [1] is 3.20^[a].

On to `CC(C)OC(=O)C(Br)C(=O)N1CCC(c2nc(C3=NOC(c4c(F)cccc4OS(C)(=O)=O)C3)cs2)CC1` (stereo not shown) [Example I-23], for which, in the series on Phytophthora infestans (setting [2]), the “Eff. % (inhibition of fungal growth)” value was 100%. Besides, in series [1], the “Log P” value is 2.97^[a].

For `CC(C)(C)OC(=O)CC(=O)N1CCC(c2nc(C3=NOC(c4c(Cl)cccc4OS(C)(=O)=O)C3)cs2)CC1` (stereo not shown) [Example I-79], the “Log P” value in series [1] is 3.04^[a].

On to `C#CCOc1cccc(Cl)c1C1CC(c2csc(C3CCN(C(=O)C(C(=O)OCc4ccccc4)n4nc(C(F)F)cc4C(F)F)CC3)n2)=NO1` (stereo not shown) [Example I-59], for which the “Eff. % (inhibition of fungal growth)” value in the series on Phytophthora infestans (setting [2]) is given as 100%. For the same compound, the “Log P” value in series [1] was 4.28^[a].

`CS(=O)(=O)Oc1cccc(Cl)c1C1CC(c2csc(C3CCN(C(=O)C(C(=O)OCc4ccccc4)n4nc(C(F)F)cc4C(F)F)CC3)n2)=NO1` (stereo not shown) [Example I-61]: the “Eff. % (inhibition of fungal growth)” value with Phytophthora infestans (setting [2]) was 100%. The “Log P” value in series [1] is 3.98^[a].

As to `CCCCCC(CC)OC(=O)C(Br)C(=O)N1CCC(c2nc(C3=NOC(c4ccccc4C=O)C3)cs2)CC1` (stereo not shown) [Example I-28], in the series on Phytophthora infestans (20 μg/mL of active ingredient), the “Eff. % (inhibition of fungal growth)” value turned out to be 100%. The “Log P” value in series [1] was 4.83^[a].

As for `CC(C)OC(=O)CC(=O)N1CCC(c2nc(C3=NOC(c4ccccc4OS(C)(=O)=O)C3)cs2)CC1` (stereo not shown) [Example I-58], in the series on Phytophthora infestans (20 μg/mL of active ingredient), the “Eff. % (inhibition of fungal growth)” value is on record as 100%. Besides, the “Log P” value in series [1] is 2.56^[a].

`CCOC(=O)C(C(=O)N1CCC(c2nc(C3=NOC(c4ccccc4OS(C)(=O)=O)C3)cs2)CC1)n1cc(C(F)(F)F)nc1C` (stereo not shown) [Example I-12]: in series [1], the “Log P” value was 2.99^[a].

Regarding `C#CCOc1cccc(F)c1C1CC(c2csc(C3CCN(C(=O)C(Br)C(=O)OC(CC)CCCCC)CC3)n2)=NO1` (stereo not shown) [Example I-35], the “Log P” value in series [1] was 4.89^[a].

`CCCCCC(CC)OC(=O)C(C(=O)N1CCC(c2nc(C3=NOC(c4ccccc4C=O)C3)cs2)CC1)n1nc(C(F)F)cc1C(F)F` (stereo not shown) [Example I-21]: in series [1], the “Log P” value was 5.20^[a].

As for `CS(=O)(=O)Oc1ccccc1C1CC(c2csc(C3CCN(C(=O)C(Br)C(=O)OCc4ccccc4)CC3)n2)=NO1` (stereo not shown) [Example I-68], the “Log P” value in series [1] is 3.31^[a].

For `C#CCOc1cccc(Cl)c1C1CC(c2csc(C3CCN(C(=O)C(Br)C(=O)OC(C)(C)C)CC3)n2)=NO1` (stereo not shown) [Example I-71], the “Eff. % (inhibition of fungal growth)” value in the series on Phytophthora infestans (setting [2]) turned out to be 100%. Besides, the “Log P” value in series [1] was 3.84^[a].

For `C#CCOc1ccccc1C1CC(c2csc(C3CCN(C(=O)CC(=O)OC(C)(C)C)CC3)n2)=NO1` (stereo not shown) [Example I-82], in series [1], the “Log P” value is 3.22^[a].

Take `COCCOC(=O)C(Br)C(=O)N1CCC(c2nc(C3=NOC(c4ccccc4OS(C)(=O)=O)C3)cs2)CC1` (stereo not shown) [Example I-36]: the “Log P” value in series [1] was 2.53^[a].

For the compound `CCCCCC(CC)OC(=O)C(Br)C(=O)N1CCC(c2nc(C3=NOC(c4ccccc4OS(C)(=O)=O)C3)cs2)CC1` (stereo not shown) [Example I-39], the “Log P” value in series [1] is 4.55^[a].

As to `C#CCOc1ccccc1C1CC(c2csc(C3CCN(C(=O)CC(=O)OC(CC)CCCCC)CC3)n2)=NO1` (stereo not shown) [Example I-57], in series [1], the “Log P” value is 4.56^[a].

On to `CC(C)(C)OC(=O)C(Br)C(=O)N1CCC(c2nc(C3=NOC(c4c(Cl)cccc4OS(C)(=O)=O)C3)cs2)CC1` (stereo not shown) [Example I-72], for which, in series [1], the “Log P” value was 3.50^[a].

For the compound `C#CCOc1ccccc1C1CC(c2csc(C3CCN(C(=O)C(Br)C(=O)OCc4ccccc4)CC3)n2)=NO1` (stereo not shown) [Example I-70], in series [1], the “Log P” value is 3.72^[a].

With `C#CCOc1cccc(F)c1C1CC(c2csc(C3CCN(C(=O)C(C(=O)OC(CC)CCCCC)n4nc(C(F)F)cc4C(F)F)CC3)n2)=NO1` (stereo not shown) [Example I-18], in series [1], the “Log P” value was 5.22^[a].

As for `CC(C)(C)OC(=O)CC(=O)N1CCC(c2nc(C3=NOC(c4ccccc4OS(C)(=O)=O)C3)cs2)CC1` (stereo not shown) [Example I-81], the “Log P” value in series [1] is 2.80^[a].

Turning to `CCOC(=O)CC(=O)N1CCC(c2nc(C3=NOC(c4ccccc4C=O)C3)cs2)CC1` (stereo not shown) [Example I-53], in the series with Phytophthora infestans (20 μg/mL of active ingredient), the “Eff. % (inhibition of fungal growth)” value is given as 100%. Moreover, the “Log P” value in series [1] was 2.34^[a].

Take `C#CCOc1cccc(F)c1C1CC(c2csc(C3CCN(C(=O)CC(=O)OCCOC)CC3)n2)=NO1` (stereo not shown) [Example I-43]: the “Log P” value in series [1] was 2.43^[a].

Consider `C#CCOc1ccccc1C1CC(c2csc(C3CCN(C(=O)C(Br)C(=O)OC(C)(C)C)CC3)n2)=NO1` (stereo not shown) [Example I-73], for which the “Log P” value in series [1] is 3.68^[a].

For the compound `CC(C)OC(=O)C(Br)C(=O)N1CCC(c2nc(C3=NOC(c4ccccc4C=O)C3)cs2)CC1` (stereo not shown) [Example I-29], the “Log P” value in series [1] is 3.11^[a].

Regarding `CCOC(=O)C(C(=O)N1CCC(c2nc(C3=NOC(c4ccccc4OS(C)(=O)=O)C3)cs2)CC1)n1nc(C(F)(F)F)cc1C` (stereo not shown) [Example I-19], in the series on Phytophthora infestans (20 μg/mL of active ingredient), the “Eff. % (inhibition of fungal growth)” value is on record as 100%. Also, the “Log P” value in series [1] is 3.42^[a].

Take `CS(=O)(=O)Oc1cccc(Cl)c1C1CC(c2csc(C3CCN(C(=O)C(Br)C(=O)OCc4ccccc4)CC3)n2)=NO1` (stereo not shown) [Example I-67]: the “Log P” value in series [1] was 3.54^[a].

In the case of `CCCCCC(CC)OC(=O)C(C(=O)N1CCC(c2nc(C3=NOC(c4c(F)cccc4OS(C)(=O)=O)C3)cs2)CC1)n1nc(C(F)F)cc1C(F)F` (stereo not shown) [Example I-22], in series [1], the “Log P” value was 4.04^[a].

Take `CC(C)(C)OC(=O)C(C(=O)N1CCC(c2nc(C3=NOC(c4ccccc4OS(C)(=O)=O)C3)cs2)CC1)n1nc(C(F)F)cc1C(F)F` (stereo not shown) [Example I-66]: in the series with Phytophthora infestans (setting [2]), the “Eff. % (inhibition of fungal growth)” value is reported as 100%. Besides, the “Log P” value in series [1] was 3.74^[a].

For the compound `CCCCCC(CC)OC(=O)CC(=O)N1CCC(c2nc(C3=NOC(c4ccccc4OS(C)(=O)=O)C3)cs2)CC1` (stereo not shown) [Example I-45], the “Eff. % (inhibition of fungal growth)” value with Phytophthora infestans (20 μg/mL of active ingredient) is 100%. Besides, in series [1], the “Log P” value was 4.07^[a].

Regarding `CCCCCC(CC)OC(=O)CC(=O)N1CCC(c2nc(C3=NOC(c4c(F)cccc4OS(C)(=O)=O)C3)cs2)CC1` (stereo not shown) [Example I-48], the “Log P” value in series [1] was 4.03^[a].

On to `C#CCOc1cccc(Cl)c1C1CC(c2csc(C3CCN(C(=O)CC(=O)OCc4ccccc4)CC3)n2)=NO1` (stereo not shown) [Example I-78], for which the “Eff. % (inhibition of fungal growth)” value in the series with Phytophthora infestans (setting [2]) is 88%. Moreover, the “Log P” value in series [1] is 3.45^[a].

As to `CC(C)OC(=O)C(C(=O)N1CCC(c2nc(C3=NOC(c4ccccc4C=O)C3)cs2)CC1)n1nc(C(F)F)cc1C(F)F` (stereo not shown) [Example I-13], the “Eff. % (inhibition of fungal growth)” value in the series with Phytophthora infestans (setting [2]) is reported as 94%. Moreover, the “Log P” value in series [1] is 3.70^[a].

Turning to `CC(C)(C)OC(=O)C(Br)C(=O)N1CCC(c2nc(C3=NOC(c4ccccc4OS(C)(=O)=O)C3)cs2)CC1` (stereo not shown) [Example I-74], in series [1], the “Log P” value is 3.24^[a].

As for `CS(=O)(=O)Oc1ccccc1C1CC(c2csc(C3CCN(C(=O)CC(=O)OCc4ccccc4)CC3)n2)=NO1` (stereo not shown) [Example I-75], in series [1], the “Log P” value is 2.89^[a].

On to `C#CCOc1ccccc1C1CC(c2csc(C3CCN(C(=O)C(C(=O)OCc4ccccc4)n4nc(C(F)F)cc4C(F)F)CC3)n2)=NO1` (stereo not shown) [Example I-62], for which the “Eff. % (inhibition of fungal growth)” value with Phytophthora infestans (setting [2]) was determined as 100%. The “Log P” value in series [1] is 4.16^[a].

Regarding `C#CCOc1ccccc1C1CC(c2csc(C3CCN(C(=O)C(Br)C(=O)OC(C)C)CC3)n2)=NO1` (stereo not shown) [Example I-32], in series [1], the “Log P” value is 3.43^[a].

As for `CS(=O)(=O)Oc1cccc(Cl)c1C1CC(c2csc(C3CCN(C(=O)CC(=O)OCc4ccccc4)CC3)n2)=NO1` (stereo not shown) [Example I-76], the “Log P” value in series [1] is 3.12^[a].

Consider `C#CCOc1cccc(Cl)c1C1CC(c2csc(C3CCN(C(=O)CC(=O)OC(C)(C)C)CC3)n2)=NO1` (stereo not shown) [Example I-80], for which the “Eff. % (inhibition of fungal growth)” value in the series on Phytophthora infestans (setting [2]) was found to be 100%. Besides, in series [1], the “Log P” value is 3.36^[a].

In the case of `C#CCOc1cccc(Cl)c1C1CC(c2csc(C3CCN(C(=O)C(Br)C(=O)OCc4ccccc4)CC3)n2)=NO1` (stereo not shown) [Example I-69], in series [1], the “Log P” value is 3.85^[a].

In the case of `CCCCCC(CC)OC(=O)C(C(=O)N1CCC(c2nc(C3=NOC(c4ccccc4OS(C)(=O)=O)C3)cs2)CC1)n1nc(C(F)F)cc1C(F)F` (stereo not shown) [Example I-10], the “Eff. % (inhibition of fungal growth)” value in the series with Phytophthora infestans (20 μg/mL of active ingredient) turned out to be 97%. In addition, the “Log P” value in series [1] is 4.96^[a].

For the compound `C#CCOc1ccccc1C1CC(c2csc(C3CCN(C(=O)CC(=O)OCc4ccccc4)CC3)n2)=NO1` (stereo not shown) [Example I-77], the “Log P” value in series [1] was 3.30^[a].

Take `CCOC(=O)CC(=O)N1CCC(c2nc(C3=NOC(c4c(F)cccc4OS(C)(=O)=O)C3)cs2)CC1` (stereo not shown) [Example I-54]: the “Log P” value in series [1] was 2.29^[a].

With `C#CCOc1cccc(F)c1C1CC(c2csc(C3CCN(C(=O)C(Br)C(=O)OCCOC)CC3)n2)=NO1` (stereo not shown) [Example I-24], the “Log P” value in series [1] was 2.85^[a].

As for `CCOC(=O)C(Br)C(=O)N1CCC(c2nc(C3=NOC(c4ccccc4C=O)C3)cs2)CC1` (stereo not shown) [Example I-25], the “Eff. % (inhibition of fungal growth)” value in the series with Phytophthora infestans (20 μg/mL of active ingredient) is reported as 100%. For the same compound, in series [1], the “Log P” value was 2.82^[a].
